How the values were obtained:
human S1P1 receptor = human S1P1 receptor (Homo sapiens, UniProt P21453); experiment: GTPγS assay to determine EC50 values; type: biochemical; settings: 35S-GTPγS binding, membrane preparations of CHO cells expressing recombinant human S1P1 receptor
Method: GTPγS Assay to Determine EC50 Values
GTPγS binding assays are performed in 96 well microtiter plates (Nunc, 442587) in a final volume of 200 μl, using membrane preparations of CHO cells expressing recombinant human S1P1 receptor. Assay conditions are 20 mM Hepes (Fluka, 54461), 100 mM NaCl (Fluka, 71378), 5 mM MgCl2 (Fluka, 63064), 0.1% BSA (Calbiochem, 126609), 1 μM GDP (Sigma, G-7127), 2.5% DMSO (Fluka, 41644), 50 pM ^35S-GTPγS (Amersham Biosciences, SJ1320). The pH is 7.4. Test compounds are dissolved and diluted in 100% DMSO and pre-incubated at rt for 30 min in 150 μl of the above assay buffer, in the absence of ^35S-GTPγS. After addition of 50 μl of ^35S-GTPγS, the assay is incubated for 1 h at rt. The assay is terminated by transfer of the reaction mixture to a Multiscreen plate (Millipore, MAHFC1H60) using a cell harvester from Packard Biosciences, and the plates are washed with ice-cold 10 mM Na2HPO4/NaH2PO4 (70%/30%), dried, sealed at the bottom and, after addition of 25 μl MicroScint20 (Packard Biosciences, order# 6013621), sealed on the top. Membrane-bound ^35S-GTPγS is measured with a TopCount from Packard Biosciences.
EC50 is the concentration of agonist inducing 50% of the maximal specific ^35S-GTPγS binding. Specific binding is determined by subtracting non-specific binding from maximal binding. Maximal binding is the amount of cpm bound to the Multiscreen plate in the presence of 10 μM of S1P. Non-specific binding is the amount of binding in the absence of an agonist in the assay.

circulating lymphocytes = experiment: Assessment of in vivo efficacy: circulating lymphocytes after oral administration; settings: 6 h after oral administration of 10 mg/kg to normotensive male Wistar rats, compared to vehicle-treated group; mean ± SEM
Method: Assessment of In Vivo Efficacy
The efficacy of the compounds of formula (I) is assessed by measuring the circulating lymphocytes after oral administration of 3 to 30 mg/kg of a compound of formula (I) to normotensive male Wistar rats. The animals are housed in climate-controlled conditions with a 12 h-light/dark cycle, and have free access to normal rat chow and drinking water. Blood is collected before and 3, 6 and 24 h after drug administration. Full blood is subjected to hematology using Advia Hematology system (Bayer Diagnostics, Zurich, Switzerland).
All data are presented as mean±SEM. Statistical analyses are performed by analysis of variance (ANOVA) using Statistica (StatSoft) and the Student-Newman-Keuls procedure for multiple comparisons. The null hypothesis is rejected when p<0.05.

Sequence of human S1P1 receptor (P21453 whole entry): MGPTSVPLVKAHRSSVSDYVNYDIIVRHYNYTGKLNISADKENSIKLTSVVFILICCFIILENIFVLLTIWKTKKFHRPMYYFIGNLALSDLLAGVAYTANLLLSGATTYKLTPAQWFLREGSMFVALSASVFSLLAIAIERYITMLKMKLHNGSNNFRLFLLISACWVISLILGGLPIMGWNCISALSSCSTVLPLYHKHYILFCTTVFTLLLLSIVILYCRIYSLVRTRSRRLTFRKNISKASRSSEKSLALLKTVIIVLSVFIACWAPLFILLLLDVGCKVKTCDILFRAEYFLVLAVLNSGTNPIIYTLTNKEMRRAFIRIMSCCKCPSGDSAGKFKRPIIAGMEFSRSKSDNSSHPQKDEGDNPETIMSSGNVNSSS

Structure (SMILES)	EC50 (human S1P1 receptor) [nM]	EC50 (human S1P1 receptor; agonistic activity) [nM]	further results
Cc1cc(CC(C)C)nc(-c2nc(-c3cc(C)nc(OC(C)C)n3)no2)c1 [Example 254]	> 10000	–	–
CCc1cc(-c2nc(-c3cc(C)nc(OC)n3)no2)cnc1N(C)C(C)C [Example 233]	–	190	–
Cc1cc(-c2noc(-c3cc(CC(C)C)nc(NC(C)C)n3)n2)cc(C)n1 [Example 142]	–	26	–
CCCNc1nc(C)cc(-c2nnc(-c3cc(C)nc(C)c3)s2)n1 [Example 261]	–	331	–
Cc1cc(-c2nc(-c3cc(C)nc(OCC(C)C)n3)no2)cc(N(C)C)n1 [Example 205]	–	3040	–
CCc1cc(-c2nc(-c3cc(C)nc(NC)n3)no2)cnc1N(C)C(C)C [Example 220]	–	231	–
Cc1cc(CC(C)C)nc(-c2nc(-c3cc(C)nc(NC(C)C)n3)no2)c1 [Example 241]	> 10000	–	–
Cc1cc(-c2noc(-c3cc(C)nc(NC(C)C)n3)n2)cc(N(C)C)n1 [Example 25]	–	46	–
Cc1cc(-c2nc(-c3ccc(C)c(C)n3)no2)nc(NC(C)C)n1 [Example 155]	–	20	–
CCCN(CC)c1nc(C)cc(-c2noc(-c3cc(C)nc(C)c3)n2)n1 [Example 178]	–	11	–
CNc1nc(C)cc(-c2noc(-c3cc(C)nc(N(C)C)c3)n2)n1 [Example 188]	–	560	–
CCCN(C)c1nc(C)cc(-c2noc(-c3cc(C)nc(C)c3)n2)n1 [Example 174]	–	34	–
CCc1cc(-c2noc(-c3cc(C)nc(OCC(C)C)n3)n2)cc(C)n1 [Example 135]	–	142	–
Cc1cc(CC(C)C)nc(-c2nc(-c3cc(C)nc(N(C)C)n3)no2)c1 [Example 243]	–	318	–
Cc1cc(CC(C)C)nc(-c2nc(-c3cc(C)nc(N(C)CC(C)C)n3)no2)c1 [Example 247]	> 10000	–	–
CCc1cc(-c2nc(-c3cc(C)nc(N(CC)C(C)C)n3)no2)cnc1N(C)C(C)C [Example 232]	> 10000	–	–
CCc1cc(-c2nc(-c3cc(C)nc(NC(C)C)n3)no2)cnc1N(C)C(C)C [Example 223]	–	4160	–
Cc1cc(-c2noc(-c3cc(C)nc(OC(C)C)n3)n2)cc(C)n1 [Example 132]	–	44	–
CCCNc1nc(C)cc(-c2noc(-c3cc(C)nc(Cl)c3)n2)n1 [Example 185]	–	22	–
CCCN(CC)c1nc(C)cc(-c2noc(-c3cc(C)cc(CC(C)C)n3)n2)n1 [Example 249]	> 10000	–	–
CCN(c1nc(C)cc(-c2nc(-c3cc(C)nc(OC)c3)no2)n1)C(C)C [Example 126]	–	39	–
CCCNc1nc(C)cc(-c2noc(-c3cnc(CC(C)C)c(C)c3)n2)n1 [Example 206]	–	5780	–

Structure (SMILES)	EC50 (human S1P1 receptor) [nM]	EC50 (human S1P1 receptor; agonistic activity) [nM]	further results
CCCNc1nc(C)cc(-c2noc(-c3cc(C)cc(CC(C)C)n3)n2)n1 [Example 240]	> 10000	–	–
Cc1cc(-c2noc(-c3cc(C)nc(NCC(C)C)n3)n2)cc(C)n1 [Example 27]	–	8	–
Cc1cc(-c2noc(-c3cc(C)nc(NC(C)C)n3)n2)cc(C)n1 [Example 21]	–	1.6	Lymphocyte counts (circulating lymphocytes): −71 ± 2%
CCNc1nc(C)cc(-c2nc(-c3cc(C)nc(Cl)c3)no2)n1 [Example 12]	–	27	–
Cc1cc(-c2nnc(-c3cc(C)nc(NC(C)C)n3)o2)cc(C)n1 [Example 100]	–	128	–
Cc1cc(CC(C)C)nc(-c2nc(-c3cc(C)nc(NCC(C)C)n3)no2)c1 [Example 242]	> 10000	–	–
CCc1cc(-c2nc(-c3cc(C)nc(N(C)CC(C)C)n3)no2)cnc1N(C)C(C)C [Example 229]	> 10000	–	–
Cc1cc(-c2nc(-c3cc(C)nc(N(C)C(C)C)n3)no2)cc(N(C)C)n1 [Example 196]	–	241	–
COc1nc(C)cc(-c2noc(-c3cc(C)nc(CC(C)C)c3)n2)n1 [Example 94]	–	27	–
COc1nc(C)cc(-c2noc(-c3cc(C)cc(CC(C)C)n3)n2)n1 [Example 251]	–	201	–
CCCN(C)c1nc(C)cc(-c2noc(-c3cnc(N(C)C(C)C)c(CC)c3)n2)n1 [Example 227]	> 10000	–	–
COc1nc(C)cc(-c2noc(-c3cc(C)nc(C)c3)n2)n1 [Example 180]	> 10000	–	–
CCN(CC)c1nc(C)cc(-c2noc(-c3cc(C)nc(C)c3)n2)n1 [Example 177]	–	11	–
CCc1cc(-c2nc(-c3cc(C)nc(NCC(C)C)n3)no2)cnc1N(C)C(C)C [Example 224]	> 10000	–	–
CCN(CC)c1nc(C)cc(-c2noc(-c3cc(C)cc(CC(C)C)n3)n2)n1 [Example 248]	> 10000	–	–
CCc1cc(-c2noc(-c3cc(C)nc(N4CCCC4)n3)n2)cc(C)n1 [Example 118]	–	186	–
CCOc1nc(C)cc(-c2nc(-c3cc(C)nc(N(C)C)c3)no2)n1 [Example 70]	> 10000	–	–
CCc1cc(-c2nc(-c3cc(C)nc(N(C)C(C)C)n3)no2)cnc1N(C)C(C)C [Example 228]	–	3220	–
CCc1cnc(-c2noc(-c3cc(C)nc(NC(C)C)n3)n2)cc1C [Example 159]	–	53	–
CCN(c1nc(C)cc(-c2noc(-c3cc(C)nc(N(C)C)c3)n2)n1)C(C)C [Example 200]	–	94	–
CCc1cc(-c2nc(-c3cc(C)nc(C)c3)no2)nc(NC(C)C)n1 [Example 147]	–	0.7	–
CCNc1nc(C)cc(-c2nc(-c3cc(C)nc(CC)c3)no2)n1 [Example 9]	–	21	–

Structure (SMILES)	EC50 (human S1P1 receptor) [nM]	EC50 (human S1P1 receptor; agonistic activity) [nM]	further results
CCNc1nc(CC)cc(-c2nc(-c3cc(C)nc(C)c3)no2)n1 [Example 79, {4-[3-(2,6-Dimethyl-pyridin-4-yl)-[1,2,4]oxadiazol-5-yl]-6-ethyl-pyrimidin-2-yl}-ethyl-amine]	–	1.2	Lymphocyte counts (circulating lymphocytes): −70 ± 2%
Cc1cc(-c2noc(-c3cc(C)nc(N(C)C(C)C)n3)n2)cc(C)n1 [Example 109]	–	1.3	–
CNc1nc(C)cc(-c2noc(-c3cc(C)nc(CC(C)C)c3)n2)n1 [Example 81]	–	30	–
CCCOc1nc(C)cc(-c2nc(-c3cc(C)nc(N(C)CC)c3)no2)n1 [Example 78]	> 10000	–	–
CCCN(CC)c1nc(C)cc(-c2noc(-c3cnc(N(C)C(C)C)c(CC)c3)n2)n1 [Example 231]	> 10000	–	–
CCN(c1nc(C)cc(-c2noc(-c3ccnc(C)c3)n2)n1)C(C)C [Example 166]	–	2150	–
COc1nc(C)cc(-c2nc(-c3cc(C)nc(C)c3)no2)n1 [Example 58]	> 10000	–	–
CCc1cc(-c2nc(-c3cc(C)nc(C)c3)no2)nc(N(C)C)n1 [Example 149]	–	63	–
CCN(c1nc(C)cc(-c2noc(-c3cc(C)cc(CC(C)C)n3)n2)n1)C(C)C [Example 250]	> 10000	–	–
CCc1cc(-c2noc(-c3cc(C)nc(NC4CC4)n3)n2)cc(C)n1 [Example 116]	–	2.1	–
Cc1cc(-c2noc(-c3cnc(OC(C)C)c(C)c3)n2)nc(NC(C)C)n1 [Example 214]	–	720	–
CCCNc1nc(C)cc(-c2nc(-c3cc(C)nc(OC)c3)no2)n1 [Example 119]	–	30	–
CNc1nc(C)cc(-c2noc(-c3cc(C)cc(CC(C)C)n3)n2)n1 [Example 238]	–	402	–
Cc1cc(CC(C)C)nc(-c2nc(-c3cc(C)nc(N(C)C(C)C)n3)no2)c1 [Example 246]	> 10000	–	–
CCCN(CC)c1nc(C)cc(-c2noc(-c3cnc(CC(C)C)c(C)c3)n2)n1 [Example 211]	–	795	–
CCCNc1nc(C)cc(-c2nc(-c3ccnc(C)c3)no2)n1 [Example 101]	–	11	–
COc1nc(C)cc(-c2nc(-c3cc(C)nc(C(C)C)c3)no2)n1 [Example 60]	–	126	–
CCc1cc(-c2nc(-c3cc(C)nc(OCC(C)C)n3)no2)cnc1N(C)C(C)C [Example 237]	> 10000	–	–
Cc1cc(-c2nc(-c3cc(C)nc(NCC(C)C)n3)no2)cc(Cl)n1 [Example 187]	–	31	–
Cc1cc(CC(C)C)nc(-c2nc(-c3cc(C)nc(OCC(C)C)n3)no2)c1 [Example 255]	> 10000	–	–
COc1nc(C)cc(-c2noc(-c3cc(C)nc(N(C)C)c3)n2)n1 [Example 201]	–	1140	–
CCCOc1nc(C)cc(-c2noc(-c3cc(C)nc(C)c3)n2)n1 [Example 182]	–	395	–

From patent US20110046170A1, “NOVEL PYRIMIDINE-PYRIDINE DERIVATIVES” (priority 2008, published 2011)
